Measurements taken from ChEMBL document CHEMBL5131430, “Free radical scavenging activities of verbascoside and isoverbascoside from the leaves of Odontonema strictum (Acanthaceae)” (Bioorg Med Chem Lett, 2022).
Values after ≈ are worked out from the molar mass of the structure shown.

Assays:
[1] = Antioxidant activity assessed as DPPH radical scavenging activity; assay type: functional
[2] = Antioxidant activity assessed as hydrogen peroxide scavenging activity; assay type: functional

Row | SMILES | IC50 [1] [µg/mL] | IC50 [2] [µg/mL]
1 | O=C1O[C@H]([C@@H](O)CO)C(O)=C1O [ASCORBIC ACID] | 0.05 (≈ 0.284 µM) | 4.1 (≈ 23.3 µM)
2 | C[C@@H]1O[C@@H](O[C@@H]2[C@@H](O)[C@H](OCCc3ccc(O)c(O)c3)O[C@H](CO)[C@H]2OC(=O)/C=C/c2ccc(O)c(O)c2)[C@H](O)[C@H](O)[C@H]1O [ACETOSIDE] | 0.09 (≈ 0.144 µM) | 2.6 (≈ 4.16 µM)
3 | C[C@@H]1O[C@@H](O[C@@H]2[C@@H](O)[C@H](OCCc3ccc(O)c(O)c3)O[C@H](COC(=O)/C=C/c3ccc(O)c(O)c3)[C@H]2O)[C@H](O)[C@H](O)[C@H]1O [ISOACTEOSIDE] | 0.16 (≈ 0.256 µM) | 3 (≈ 4.8 µM)
